Results reported in patent US20240299400A1, “Transcription Factor GLI1 Inhibitors and Uses Thereof” (University of Connecticut, priority 2023, published 2024).

Key:
GLI1-ZFD = molecular target: T1, GLI1-ZFD (Homo sapiens, UniProt P08151); assay: Microscale thermophoresis (MST) binding to GLI1-ZFD
T1 construct: GLI1-ZFD Expression and Purification; made in house
T1 sequence (P08151 234-388 limits assumed): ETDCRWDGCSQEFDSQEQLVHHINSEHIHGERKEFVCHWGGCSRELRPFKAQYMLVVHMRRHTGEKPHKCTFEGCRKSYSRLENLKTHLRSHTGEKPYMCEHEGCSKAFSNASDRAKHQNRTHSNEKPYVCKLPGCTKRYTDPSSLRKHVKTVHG
Outline: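 RED-NHS–labeled recombinant GLI1 zinc-finger domain (200 nM) was mixed with compound dilutions (DMSO<5%) in 50 mM HEPES pH 8.3, 100 mM NaCl. Binding was read by microscale thermophoresis on a Monolith NT.115.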

ASZ001 cells = assay: MTS anti-proliferative assay in ASZ001 cells; assay type: cell-based, murine; conditions: Mus musculus, ASZ001, Ave ± SEM
DAOY (MB) = assay: MTS anti-proliferative assay in DAOY cells; assay type: cell-based; conditions: Homo sapiens, Daoy; Table 8, 48 h, mean ± SEM
PANC-1 (pancreatic) = assay: MTS anti-proliferative assay in PANC-1 cells; assay type: cell-based; conditions: Homo sapiens, PANC-1; Table 8, 48 h, mean ± SEM
PIK3C2A = molecular target: T2, PIK3C2A (Homo sapiens, UniProt O00443); assay: Adapta kinase assay, PIK3C2A; assay type: biochemical; conditions: average of three replicates
T2 construct: purchased ThermoFisher Scientific (Madison, WI, USA), contract service
Method: (§1) Kinase screening experiments. Kinase inhibition/binding experiments were performed by ThermoFisher Scientific (Madison, WI, USA) as a contract service, utilizing their default protocols [G. Yernale, A comprehensive review on the biological interest of quinoline and its derivatives. Bioorg. Med. Chem. 32 (2021) 115973]. Briefly, for ZLyte assay, compound in DMSO (100 nL), kinase buffer (2.4 μL), peptide/kinase mixture (5 μL), and ATP solution (2.5 μL) were mixed in a black 384-well plate. Following a 30 s plate shake to mix reagents, the kinase assay mixture was incubated at RT for 60 min. Following addition of the development reagent solution to each well, another 60 min incubation was performed at RT for reaction development. Fluorescent signal was recorded and subsequently analyzed.
For the Adapta assay, compounds in DMSO (100 nL), 30 mM HEPES buffer (2.4 μL), substrate/kinase mixture (5 μL), and ATP solution (2.5 μL) were mixed in a white 384-well plate. Following a 30 s plate shake to mix the reagents and a 1 min centrifuge at 1000 g, the kinase assay mixture was incubated at RT for 60 min. Following addition of the detection mix (5 μL) to each well, 30 s plate shaking, and 1 min centrifuge at 1000 g, another 60 min incubation was performed at RT for equilibration. Fluorescent signals were recorded and subsequently analyzed.

AKT1 = molecular target: T3, AKT1 (Homo sapiens, UniProt P31749); assay: ZLyte kinase assay, AKT1; assay type: biochemical; conditions: average of three replicates
T3 construct: purchased ThermoFisher Scientific (Madison, WI, USA), contract service
Method: as §1

CSF1R = molecular target: T4, CSF1R (Homo sapiens, UniProt P07333); assay: ZLyte kinase assay, CSF1R; assay type: biochemical; conditions: average of three replicates
T4 construct: purchased ThermoFisher Scientific (Madison, WI, USA), contract service
Method: as §1

CSNK1A1 = molecular target: T5, CSNK1A1 (Homo sapiens, UniProt P48729); assay: ZLyte kinase assay, CSNK1A1; assay type: biochemical; conditions: average of three replicates
T5 construct: purchased ThermoFisher Scientific (Madison, WI, USA), contract service
Method: as §1

CSNK2A1 = molecular target: T6, CSNK2A1 (Homo sapiens, UniProt P68400); assay: ZLyte kinase assay, CSNK2A1; assay type: biochemical; conditions: average of three replicates
T6 construct: purchased ThermoFisher Scientific (Madison, WI, USA), contract service
Method: as §1

DYRKIA = molecular target: T7, DYRKIA (Homo sapiens, UniProt Q13627); assay: ZLyte kinase assay, DYRKIA; assay type: biochemical; conditions: average of three replicates
T7 construct: purchased ThermoFisher Scientific (Madison, WI, USA), contract service
Method: as §1

DYRK1B = molecular target: T8, DYRK1B (Homo sapiens, UniProt Q9Y463); assay: ZLyte kinase assay, DYRK1B; assay type: biochemical; conditions: average of three replicates
T8 construct: purchased ThermoFisher Scientific (Madison, WI, USA), contract service
Method: as §1

EGFR = molecular target: T9, EGFR (Homo sapiens, UniProt P00533); assay: ZLyte kinase assay, EGFR; assay type: biochemical; conditions: average of three replicates
T9 construct: purchased ThermoFisher Scientific (Madison, WI, USA), contract service
Method: as §1

GSK3B = molecular target: T10, GSK3B (Homo sapiens, UniProt P49841); assay: ZLyte kinase assay, GSK3B; assay type: biochemical; conditions: average of three replicates
T10 construct: purchased ThermoFisher Scientific (Madison, WI, USA), contract service
Method: as §1

IGF1R = molecular target: T11, IGF1R (Homo sapiens, UniProt P08069); assay: ZLyte kinase assay, IGF1R; assay type: biochemical; conditions: average of three replicates
T11 construct: purchased ThermoFisher Scientific (Madison, WI, USA), contract service
Method: as §1

MAP2K2 = molecular target: T12, MAP2K2 (Homo sapiens, UniProt P36507); assay: ZLyte kinase assay, MAP2K2; assay type: biochemical; conditions: average of three replicates
T12 construct: purchased ThermoFisher Scientific (Madison, WI, USA), contract service
Method: as §1

MAPK1 = molecular target: T13, MAPK1 (Homo sapiens, UniProt P28482); assay: ZLyte kinase assay, MAPK1; assay type: biochemical; conditions: average of three replicates
T13 construct: purchased ThermoFisher Scientific (Madison, WI, USA), contract service
Method: as §1

MAPK3 = molecular target: T14, MAPK3 (Homo sapiens, UniProt P27361); assay: ZLyte kinase assay, MAPK3; assay type: biochemical; conditions: average of three replicates
T14 construct: purchased ThermoFisher Scientific (Madison, WI, USA), contract service
Method: as §1

PDGFRA = molecular target: T15, PDGFRA (Homo sapiens, UniProt P16234); assay: ZLyte kinase assay, PDGFRA; assay type: biochemical; conditions: average of three replicates
T15 construct: purchased ThermoFisher Scientific (Madison, WI, USA), contract service
Method: as §1

SRC kinase = molecular target: T16, SRC kinase (Homo sapiens, UniProt P12931); assay: ZLyte kinase assay, SRC; assay type: biochemical; conditions: for inhibition at 1 µM: ZLyte, average of three replicates; for concentration-dependent inhibition of SRC kinase (in words): FIG. 6, representative experiment in triplicate
T16 construct: purchased ThermoFisher Scientific (Madison, WI, USA), contract service
Method: as §1

T8 sequence (Q9Y463 whole entry): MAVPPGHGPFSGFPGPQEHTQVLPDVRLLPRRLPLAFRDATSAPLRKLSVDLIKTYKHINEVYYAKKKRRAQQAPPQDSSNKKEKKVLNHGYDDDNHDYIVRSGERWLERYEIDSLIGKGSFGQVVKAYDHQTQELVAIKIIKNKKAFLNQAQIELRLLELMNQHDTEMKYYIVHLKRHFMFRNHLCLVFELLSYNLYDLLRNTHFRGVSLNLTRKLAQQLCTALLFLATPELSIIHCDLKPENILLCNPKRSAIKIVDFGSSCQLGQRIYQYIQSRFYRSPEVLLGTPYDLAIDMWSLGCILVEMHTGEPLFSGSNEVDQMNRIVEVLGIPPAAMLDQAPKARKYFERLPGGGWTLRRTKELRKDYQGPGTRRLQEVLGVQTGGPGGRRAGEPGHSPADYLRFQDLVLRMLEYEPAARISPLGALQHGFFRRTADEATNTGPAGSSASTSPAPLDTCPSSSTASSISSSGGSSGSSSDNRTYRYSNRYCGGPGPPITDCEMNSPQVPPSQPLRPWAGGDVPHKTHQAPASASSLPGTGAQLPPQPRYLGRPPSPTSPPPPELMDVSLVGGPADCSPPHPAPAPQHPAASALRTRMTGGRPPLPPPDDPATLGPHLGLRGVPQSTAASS
T10 sequence (P49841 whole entry): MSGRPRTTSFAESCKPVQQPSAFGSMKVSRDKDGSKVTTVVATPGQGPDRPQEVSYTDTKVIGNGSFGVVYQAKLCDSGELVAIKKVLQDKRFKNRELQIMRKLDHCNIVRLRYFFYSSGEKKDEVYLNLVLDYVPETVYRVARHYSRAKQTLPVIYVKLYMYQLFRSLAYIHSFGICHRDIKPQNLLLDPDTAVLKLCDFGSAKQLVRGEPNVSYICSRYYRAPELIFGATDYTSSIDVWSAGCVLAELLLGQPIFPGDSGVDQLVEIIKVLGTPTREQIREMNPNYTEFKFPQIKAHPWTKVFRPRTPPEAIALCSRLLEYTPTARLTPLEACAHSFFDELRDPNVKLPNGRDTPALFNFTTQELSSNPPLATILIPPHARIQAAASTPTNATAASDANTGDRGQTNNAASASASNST
T14 sequence (P27361 whole entry): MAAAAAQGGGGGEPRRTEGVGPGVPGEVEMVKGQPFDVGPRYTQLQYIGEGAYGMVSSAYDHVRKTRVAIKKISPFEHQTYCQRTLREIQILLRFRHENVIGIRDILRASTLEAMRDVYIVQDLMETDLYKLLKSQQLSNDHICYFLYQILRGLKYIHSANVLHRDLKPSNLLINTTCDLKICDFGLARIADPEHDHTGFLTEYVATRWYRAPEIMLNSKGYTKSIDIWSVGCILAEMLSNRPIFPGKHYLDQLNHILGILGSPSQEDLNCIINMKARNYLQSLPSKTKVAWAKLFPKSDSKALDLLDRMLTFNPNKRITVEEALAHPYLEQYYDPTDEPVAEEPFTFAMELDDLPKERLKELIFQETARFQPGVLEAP
T15 sequence (P16234 24-1089): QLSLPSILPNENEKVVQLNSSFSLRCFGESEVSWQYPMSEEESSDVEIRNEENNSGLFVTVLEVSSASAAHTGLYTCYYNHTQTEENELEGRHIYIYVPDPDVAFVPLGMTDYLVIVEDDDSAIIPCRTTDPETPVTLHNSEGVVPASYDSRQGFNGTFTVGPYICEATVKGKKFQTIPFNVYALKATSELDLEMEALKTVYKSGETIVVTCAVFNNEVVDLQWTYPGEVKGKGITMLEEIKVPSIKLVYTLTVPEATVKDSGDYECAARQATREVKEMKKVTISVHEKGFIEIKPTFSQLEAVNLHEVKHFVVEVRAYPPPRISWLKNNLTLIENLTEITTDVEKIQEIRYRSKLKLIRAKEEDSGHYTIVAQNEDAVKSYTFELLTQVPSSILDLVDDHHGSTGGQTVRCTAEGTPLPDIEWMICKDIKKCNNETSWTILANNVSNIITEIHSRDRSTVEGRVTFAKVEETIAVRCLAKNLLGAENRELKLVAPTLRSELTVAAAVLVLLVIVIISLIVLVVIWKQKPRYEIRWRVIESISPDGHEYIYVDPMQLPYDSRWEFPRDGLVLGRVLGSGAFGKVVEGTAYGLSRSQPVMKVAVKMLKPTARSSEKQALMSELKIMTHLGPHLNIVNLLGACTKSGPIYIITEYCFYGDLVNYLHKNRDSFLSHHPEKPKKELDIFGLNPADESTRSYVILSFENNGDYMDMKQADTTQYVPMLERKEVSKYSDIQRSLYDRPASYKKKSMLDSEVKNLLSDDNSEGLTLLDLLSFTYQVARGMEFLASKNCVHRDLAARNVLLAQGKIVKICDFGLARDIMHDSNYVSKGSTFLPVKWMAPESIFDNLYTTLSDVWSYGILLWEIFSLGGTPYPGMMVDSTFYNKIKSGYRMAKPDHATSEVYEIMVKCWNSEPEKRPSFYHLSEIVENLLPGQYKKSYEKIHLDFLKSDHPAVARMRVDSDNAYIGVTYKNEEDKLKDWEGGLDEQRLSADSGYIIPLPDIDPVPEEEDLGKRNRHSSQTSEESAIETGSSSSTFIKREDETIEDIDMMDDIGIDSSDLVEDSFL
T4 sequence (P07333 20-972): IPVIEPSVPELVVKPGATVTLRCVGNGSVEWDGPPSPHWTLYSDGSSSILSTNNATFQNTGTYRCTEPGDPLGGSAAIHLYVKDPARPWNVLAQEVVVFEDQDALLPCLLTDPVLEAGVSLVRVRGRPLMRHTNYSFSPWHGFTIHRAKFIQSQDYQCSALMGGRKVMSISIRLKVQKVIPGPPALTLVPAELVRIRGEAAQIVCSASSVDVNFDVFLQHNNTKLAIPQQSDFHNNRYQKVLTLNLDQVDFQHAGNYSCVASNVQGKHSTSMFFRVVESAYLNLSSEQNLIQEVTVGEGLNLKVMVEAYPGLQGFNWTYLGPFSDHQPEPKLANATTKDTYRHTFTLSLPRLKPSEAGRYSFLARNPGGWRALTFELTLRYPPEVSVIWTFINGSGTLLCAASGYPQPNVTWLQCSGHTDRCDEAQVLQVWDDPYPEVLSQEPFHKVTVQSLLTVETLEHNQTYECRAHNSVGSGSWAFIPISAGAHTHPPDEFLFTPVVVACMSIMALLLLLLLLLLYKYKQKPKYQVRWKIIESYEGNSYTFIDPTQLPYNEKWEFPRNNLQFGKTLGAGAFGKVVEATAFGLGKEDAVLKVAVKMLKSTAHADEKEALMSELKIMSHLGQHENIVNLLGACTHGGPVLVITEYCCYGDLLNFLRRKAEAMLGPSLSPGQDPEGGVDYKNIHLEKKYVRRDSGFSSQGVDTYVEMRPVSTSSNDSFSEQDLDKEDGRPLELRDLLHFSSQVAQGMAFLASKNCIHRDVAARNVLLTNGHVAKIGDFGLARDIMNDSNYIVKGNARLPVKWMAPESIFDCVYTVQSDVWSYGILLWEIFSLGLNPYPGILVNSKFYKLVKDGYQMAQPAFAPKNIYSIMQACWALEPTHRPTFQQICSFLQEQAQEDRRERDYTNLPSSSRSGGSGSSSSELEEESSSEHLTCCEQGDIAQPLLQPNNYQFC
T12 sequence (P36507 whole entry): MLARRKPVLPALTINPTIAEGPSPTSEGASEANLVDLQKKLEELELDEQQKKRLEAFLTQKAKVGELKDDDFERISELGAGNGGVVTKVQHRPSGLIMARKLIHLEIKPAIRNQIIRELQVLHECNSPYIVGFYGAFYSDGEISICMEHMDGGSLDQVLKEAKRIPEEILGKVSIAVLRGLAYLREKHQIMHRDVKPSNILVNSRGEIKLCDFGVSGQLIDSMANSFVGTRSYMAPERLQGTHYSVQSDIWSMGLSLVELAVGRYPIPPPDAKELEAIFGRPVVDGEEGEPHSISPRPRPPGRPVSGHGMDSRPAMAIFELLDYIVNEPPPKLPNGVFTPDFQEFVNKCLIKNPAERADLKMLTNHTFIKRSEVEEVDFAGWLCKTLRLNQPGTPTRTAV
T13 sequence (P28482 whole entry): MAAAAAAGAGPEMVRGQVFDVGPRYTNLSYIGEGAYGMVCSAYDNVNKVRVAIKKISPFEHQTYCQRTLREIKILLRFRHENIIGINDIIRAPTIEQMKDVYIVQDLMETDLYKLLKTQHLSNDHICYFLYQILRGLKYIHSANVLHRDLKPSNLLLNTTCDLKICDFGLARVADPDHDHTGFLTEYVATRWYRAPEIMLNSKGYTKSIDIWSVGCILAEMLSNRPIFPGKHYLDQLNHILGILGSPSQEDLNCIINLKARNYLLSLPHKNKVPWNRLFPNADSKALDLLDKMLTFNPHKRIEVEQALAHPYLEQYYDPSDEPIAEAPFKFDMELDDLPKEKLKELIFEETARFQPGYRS
T3 sequence (P31749 whole entry): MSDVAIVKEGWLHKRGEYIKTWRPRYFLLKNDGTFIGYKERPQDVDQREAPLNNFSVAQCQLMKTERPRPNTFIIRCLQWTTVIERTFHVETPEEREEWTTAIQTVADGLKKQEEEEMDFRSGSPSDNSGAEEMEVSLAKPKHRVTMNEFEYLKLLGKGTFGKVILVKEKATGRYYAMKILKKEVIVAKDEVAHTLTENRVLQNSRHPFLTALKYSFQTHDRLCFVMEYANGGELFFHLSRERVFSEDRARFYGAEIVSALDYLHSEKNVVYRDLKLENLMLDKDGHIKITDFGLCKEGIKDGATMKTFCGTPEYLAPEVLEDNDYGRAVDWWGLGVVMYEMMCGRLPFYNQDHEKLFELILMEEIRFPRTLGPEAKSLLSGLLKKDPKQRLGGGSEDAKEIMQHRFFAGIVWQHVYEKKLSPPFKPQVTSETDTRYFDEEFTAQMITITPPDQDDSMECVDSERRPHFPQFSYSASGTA
T5 sequence (P48729 whole entry): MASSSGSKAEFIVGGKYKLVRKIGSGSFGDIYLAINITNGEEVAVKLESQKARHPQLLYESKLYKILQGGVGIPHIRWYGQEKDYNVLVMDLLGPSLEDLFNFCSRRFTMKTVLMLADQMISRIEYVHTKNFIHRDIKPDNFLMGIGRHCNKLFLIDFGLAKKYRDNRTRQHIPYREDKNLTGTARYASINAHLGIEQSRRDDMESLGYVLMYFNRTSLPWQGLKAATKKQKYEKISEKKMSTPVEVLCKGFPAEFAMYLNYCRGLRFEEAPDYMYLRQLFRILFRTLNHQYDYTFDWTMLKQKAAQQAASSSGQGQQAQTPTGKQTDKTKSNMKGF

SMILES: CCN(CC)c1ccc(C(Nc2ccccn2)c2ccc3ccc(C)nc3c2OC)cc1 (stereo not shown) [Compound 20, N-((4-Diethylaminophenyl)(8-methoxy-2-methylquinolin-7-yl)methyl)pyridin-2-amine]
- binding to GLI1 (in words) (GLI1-ZFD; MST binding assay): does not bind to GLI1
- Kd (GLI1-ZFD; Table 5, Ave ± SEM): > 125 µM
- GI50 (ASZ001 cells; Table 5, 48 h): > 100 µM
- GI50 (DAOY (MB)): > 100 µM
- GI50 (PANC-1 (pancreatic)): > 100 µM
- inhibition at 1 µM (PIK3C2A): 3%
- inhibition at 1 µM (AKT1): 4%
- inhibition at 1 µM (CSF1R): 8%
- inhibition at 1 µM (CSNK1A1): 4%
- inhibition at 1 µM (CSNK2A1): 5%
- inhibition at 1 µM (DYRKIA): 4%
- inhibition at 1 µM (DYRK1B): 3%
- inhibition at 1 µM (EGFR): -2%
- inhibition at 1 µM (GSK3B): -1%
- inhibition at 1 µM (IGF1R): 9%
- inhibition at 1 µM (MAP2K2): 12%
- inhibition at 1 µM (MAPK1): 10%
- inhibition at 1 µM (MAPK3): 4%
- inhibition at 1 µM (PDGFRA): 0%
- inhibition at 1 µM (SRC kinase): 45%
- concentration-dependent inhibition of SRC kinase (in words) (SRC kinase): inhibit SRC kinase in a concentration-dependent fashion

SMILES: Cc1ccc2ccc(C(Nc3ccccn3)c3ccncc3)c(O)c2n1 (stereo not shown) [Compound 39, 7-((Pyridin-4-yl)(pyridin-2-ylamino)methyl)-2-methylquinolin-8-ol]
- Kd (GLI1-ZFD; Table 7, Ave ± SEM): 9.1 ± 1.5 µM
- GI50 (ASZ001 cells; Table 7, 48 h): 3.9 ± 1.2 µM
- GI50 (DAOY (MB)): 1.2 ± 0.2 µM
- GI50 (PANC-1 (pancreatic)): 0.83 ± 0.1 µM
- inhibition at 1 µM (PIK3C2A): -1%
- inhibition at 1 µM (AKT1): 7%
- inhibition at 1 µM (CSF1R): 10%
- inhibition at 1 µM (CSNK1A1): 3%
- inhibition at 1 µM (CSNK2A1): 2%
- inhibition at 1 µM (DYRKIA): 6%
- inhibition at 1 µM (DYRK1B): 3%
- inhibition at 1 µM (EGFR): 2%
- inhibition at 1 µM (GSK3B): 1%
- inhibition at 1 µM (IGF1R): 12%
- inhibition at 1 µM (MAP2K2): 14%
- inhibition at 1 µM (MAPK1): 7%
- inhibition at 1 µM (MAPK3): 2%
- inhibition at 1 µM (PDGFRA): 0%
- inhibition at 1 µM (SRC kinase): 46%
- concentration-dependent inhibition of SRC kinase (in words) (SRC kinase): inhibit SRC kinase in a concentration-dependent fashion

SMILES: Cc1ccc2ccc(C(Nc3ccccn3)c3ccc(N4CCCC4=O)cc3)c(O)c2n1 (stereo not shown) [Compound 48, 7-((4-(2-Oxopyrrolidin-1-yl)phenyl)(pyridin-2-ylamino)methyl)-2-methylquinolin-8-ol]
- Kd (GLI1-ZFD; Table 7, Ave ± SEM): 8 ± 3.1 µM
- GI50 (ASZ001 cells; Table 7, 48 h): 19.6 ± 3.6 µM
- GI50 (DAOY (MB)): 25 ± 2.3 µM
- GI50 (PANC-1 (pancreatic)): 23.2 ± 4.3 µM
- inhibition at 1 µM (PIK3C2A): 0%
- inhibition at 1 µM (AKT1): 10%
- inhibition at 1 µM (CSF1R): 8%
- inhibition at 1 µM (CSNK1A1): 6%
- inhibition at 1 µM (CSNK2A1): 2%
- inhibition at 1 µM (DYRKIA): 4%
- inhibition at 1 µM (DYRK1B): 5%
- inhibition at 1 µM (EGFR): 2%
- inhibition at 1 µM (GSK3B): 4%
- inhibition at 1 µM (IGF1R): 9%
- inhibition at 1 µM (MAP2K2): 16%
- inhibition at 1 µM (MAPK1): 12%
- inhibition at 1 µM (MAPK3): 7%
- inhibition at 1 µM (PDGFRA): 1%
- inhibition at 1 µM (SRC kinase): 39%
- concentration-dependent inhibition of SRC kinase (in words) (SRC kinase): inhibit SRC kinase in a concentration-dependent fashion
